Converted amounts (≈) assume the structure as drawn. “And” between values parts separate entries of the source, which are not always exact repeats. Identical values can stand only once.

The subject of data set [1] is Staphylococcus aureus IFO 12732. Briefly: Antibacterial activity (MIC) against Staphylococcus aureus IFO 12732. Type of data set: cell-based. The settings on record: IFO12732, 37° C., 18 to 20 hours. On the procedure: (§1) The antibacterial activity against Gram-positive bacteria of the compound of the present invention was measured according to a standard method of Nippon Kagaku Ryoho Gakkai [Nippon Kagaku Ryoho Gakkaishi (Journal of the Chemical therapy of Japan), 29, 76(1981)].
(§2) As for gram-positive bacteria, after cultivation in Meuller Hinton broth medium (made by Difco Co., Ltd.), there was prepared a bacterial suspension for inoculation containing about 10^6 of the bacteria per 1 ml of the Meuller Hinton broth medium. On the other hand, the test compound was added to Mueller Hinton agar medium (made by Difco Co., Ltd.) so as to give agar plate medium containing test samples which are twofold serial diluted. Then, the above-mentioned bacterial suspension for inoculation was streaked to each agar medium for about 2 cm with a looped nichrome wire (inner diameter: about 1 mm).
(§3) After that the each agar plate medium was cultured at 37° C. for 18 to 20 hours, the growth of the test bacteria was determined.

Data set [2] concerns Bacillus subtilis IFO 3134. The data set is described as follows: Antibacterial activity (MIC) against Bacillus subtilis IFO 3134. Type of data set: cell-based. The settings on record: IFO3134, 37° C., 18 to 20 hours. On the procedure:
as §1, §2, §3

In data set [3] the test system is Nycobacterium smegmatis ATCC 607. Briefly: Antibacterial activity (MIC) against acid-fast bacteria. In kind it is cell-based. The settings on record: 37° C., 40 to 42 hours. On the procedure:
As for acid-fast bacteria, after cultured in glycerol broth medium, there was prepared a bacterial suspension for inoculation containing about 10^6 of the bacteria per 1 ml of the medium. On the other hand, there were prepared some glycerol Czapek agar plating media with adding the test compounds, and thereto the bacterial suspension for inoculation was streaked.

Data set [4] has as its target T1, epidermal growth factor receptor-tyrosine kinase complex (Homo sapiens, UniProt P00533).
T1 construct: The membrane preparation was employed in the following measurement without solubilization; endogenous in cells; host or cells: A-431 (ATCC CRL1555), membrane preparation, not solubilized
The data set is described as follows: Tyrosine kinase inhibiting activity (A-431 membrane preparation, EGF-stimulated). In kind it is biochemical. The settings on record: 1 μM in the reaction mixture; read-out: Tyrosine kinase inhibition rate. On the procedure: Tyrosine kinase inhibiting activity of the compound of the present invention was measured referring to a method for measuring tyrosine kinase activity by G. Carpenter or by S. Cohen et al. [J. Biol. Chem., 254, 4884(1979); J. Biol. Chem., 257, 1528(1982)].
Cell line A-431 derived from human carcinoma (ATCC CRL1555) was cultured at 37° C. under the condition of 5% CO2 in Dulbecco's modified Eagle's medium (made by NISSUE PHARMACEUTICAL CO., LTD.) containing 10% by volume fetal bovine serum, 50 μg/ml of streptomycin, 50 IU/ml of penicillin G and 50 μg/ml of kanamycin. […] The membrane preparation was employed in the following measurement without solubilization.
A test compound dissolved in dimethylsulfoxide (hereinafter referred to as "DMSO") was added to a mixture of 20 mM of N-2-hydroxyethylpiperazine-N'-2-ethanesulfonic acid buffer (pH 7.4), 1 mM of MnCl2, 7.5 μg of bovine serium albumin and the membrane preparation (10 μg as protein). After incubation at 0° C. for 5 minutes, 100 ng of epidermal growth factor (hereinafter referred to as "EGF") was added thereto and the mixture was further incubated at 0° C. for 15 minutes. [γ-^32 P]ATP (3000 Ci/mmol, 0.1 μCi) was added thereto to make final volume of 70 μl. After incubation at 0° C. for 15 minutes, 50 μl of the reaction mixture was soaked into Whatman 3 MM filter paper (made by Whatman Ltd.) and immediately the reaction was stopped by an aqueous solution of 10% by weight trichloroacetic acid containing 10 mM sodium pyrophosphate. The filter paper was sufficiently washed with the same solution and then washed with ethanol, and dried. Radioactivity present in the filter paper was measured by liquid scintillation counter (A). Also, radioactivity was measured in case of the reaction without EGF (B), the reaction without the test compound (C), and the reaction without both EGF and the test compound (D) as a control.
Tyrosine kinase inhibition rate (%) was calculated by the following equation. [formula]

Data set [5] has as its system Micrococcus luteus IFO 13867. The data set is described as follows: Antibacterial activity (MIC) against Micrococcus luteus IFO 13867. Type of data set: cell-based. The note with it: IFO13867, 37° C., 18 to 20 hours. On the procedure: as §1, §2, §3
Data set [6] has as its target T2, reverse transcriptase derived from Moloney-Murine Leukemia Virus (M-MLV) (Moloney murine leukemia virus, UniProt P03355).
T2 construct: reverse transcriptase derived from Moloney-Murine Leukemia Virus; purchased Pharmacia K. K
Briefly: Inhibiting activity against reverse transcriptase derived from M-MLV. Type of data set: biochemical. The note with it: read-out: Inhibition rate (reverse transcriptase derived from M-MLV); for inhibition at 1 µM: 1 μM in the reaction mixture. On the procedure:
There was found the following point by using reverse transcriptase derived from Moloney-Murine Leukemia Virus (hereinafter referred to as "M-MLV").
The compound of the present invention was dissolved in DMSO to give a 100 mM solution thereof. Then, the solution was diluted with distilled water containing DMSO to give a solution of the test compound having a defined concentration. A mixed ratio of DMSO and distilled water was adjusted so that the concentration of DMSO at this time is 10% by volume and a final concentration of DMSO at the beginning of a reaction is 1% by volume.
The thus prepared solution of the test compound was mixed with a solution containing 50 mM of Tris--HCl buffer (pH 8.3), 8 mM of MgCl2, 30 mM of NaCl, 50 mM of dithiothreitol (made by Wako Pure Chemical Industries Ltd.), 0.2 mM of thymidine-5'-triphosphate (made by Pharmacia K. K.) and 6 U/ml of reverse transciptase derived from M-MLV (made by Pharmacia K. K.), and preincubated at 37° C. for 30 minutes. After there was added thereto 10 μg/ml of polyadenylic acid (made by PL Biochemicals Co., Ltd.), 0.01 U/ml of oligodeoxy thymidylic acid (made by Pharmacia K. K.) and 10 μCi/ml of [methyl-^3 H] thymidine-5'-triphosphate (made by Amersham Japan Co., Ltd., 47 Ci/mmol) to give a reaction mixture, the mixture was further incubated at 37° C. for 30 minutes, followed by cooling with ice to stop the reaction.
The radioactivity incorporated into deoxyribonucleic acids was measured according to the method of Linteril et al (Science 170, 447 to 449 (1967)). A defined volume of the reaction mixture was soaked into DE-81 filter paper (made by Whatman Ltd.), the filter paper was washed with 5% by weight of Na2 HPO4 solution for three times, and with distilled water and ethanol successively, and then dried. Radioactivity contained in the filter paper was measured by liquid scintillation counter to give the each radioactivity of the test solution groups.
On the other hand, the same procedure as above was carried out using DMSO-distilled water without the test compound instead of using the test solution, to give the value of radioactivity of a control group.
Reverse transcriptase derived from M-MLV inhibition rate (%) was calculated by the following equation. [formula]

A further data set is described as follows: UV absorption spectrum. The settings on record: in methanol; for molar extinction coefficient: at the λ max of the same line. Type of data set: physicochemical. On the procedure: Each UV absorption spectrum of the compounds of the present invention was measured according to the conventional method, in which methanol was used as a solvent, and thereby molar extinction coefficient thereof was calculated.

The target of a further data set is T3, 5-lipoxygenase (Cavia porcellus, UniProt A0A286X958).
T3 construct: The cytosol fraction was used as an enzyme solution; from tissue; host or cells: peritoneal exudate cells of casein-injected Hartley guinea pigs, 105,000×g cytosol
T3 sequence (A0A286X958 1-674): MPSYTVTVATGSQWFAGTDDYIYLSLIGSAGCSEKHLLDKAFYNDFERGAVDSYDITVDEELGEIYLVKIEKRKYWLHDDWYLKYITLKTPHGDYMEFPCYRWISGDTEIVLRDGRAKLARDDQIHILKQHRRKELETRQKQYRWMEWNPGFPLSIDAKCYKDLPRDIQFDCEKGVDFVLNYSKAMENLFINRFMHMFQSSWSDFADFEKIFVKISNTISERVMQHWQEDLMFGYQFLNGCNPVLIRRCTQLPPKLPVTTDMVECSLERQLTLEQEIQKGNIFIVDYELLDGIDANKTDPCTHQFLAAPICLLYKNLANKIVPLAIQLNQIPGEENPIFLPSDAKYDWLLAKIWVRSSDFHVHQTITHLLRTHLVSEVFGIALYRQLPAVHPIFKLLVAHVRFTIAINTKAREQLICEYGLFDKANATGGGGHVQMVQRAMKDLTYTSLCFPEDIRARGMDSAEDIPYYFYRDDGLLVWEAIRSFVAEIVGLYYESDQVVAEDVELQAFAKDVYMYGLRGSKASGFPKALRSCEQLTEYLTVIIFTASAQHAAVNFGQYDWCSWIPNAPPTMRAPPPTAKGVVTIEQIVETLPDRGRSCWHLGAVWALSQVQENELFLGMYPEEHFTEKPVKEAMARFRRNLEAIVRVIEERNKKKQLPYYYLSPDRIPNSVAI
Briefly: 5-Lipoxygenase inhibiting activity (5-HETE formation, cytosol of peritoneal exudate cells). In kind it is biochemical, Hartley guinea pigs. The settings on record: 10 μM in the reaction mixture; read-out: Inhibition rate (5-lipoxygenase). On the procedure:
5-Lipoxygenase inhibiting activity of the compound of the present invention was measured referring to the method for measuring 5-lipoxygenase activity by K. Ochi et al. [Journal of Biological Chemistry (J. Biol. Chem.), 258, 5754(1983)].
Sterilized 2% solution of casein (pH 7) was injected intraperitoneally into Hartley guinea pigs in a volume of 5 ml/100 g body weight. Fifteen hours later, the guinea pigs were killed and peritoneal exudate cells thereof were collected. After the exudate cells were washed with 17 mM Tris--HCl buffer (pH 7.4) containing 0.74% ammonium to remove contaminating erythrocytes in the exudate cells suspension, the cells were washed with buffer A (130 mM NaCl, 1 mM EDTA, 25 mM sodium phosphate, pH 7.4). The washed cells were suspended in buffer B (50 mM sodium phosphate, 1 mM EDTA, 0.1% gelatin, pH 7.4) at 10^8 cells/ml, sonicated and centrifuged at 10,000×g for 20 minutes under the cold atmosphere. The obtained supernatant was further centrifuged at 105,000×g for 60 minutes under the cold atmosphere. The cytosol fraction was used as an enzyme solution.
The enzyme solution was preincubated with the […] in the presence of 1 mM CaCl2, 1 mM reduced gluthathione (GSH) and 2 mM ATP at 30° C. for 5 minutes in 0.2 ml of a reaction mixture and the mixture was further incubated at 30° C. for 5 minutes by adding 20 μM [1-^14 C] arachidonic acid (0.1 μCi) thereto. The test compounds were dissolved in ethanol to give the reaction mixture containing 2% ethanol as a final concentration. Only ethanol was added to the reaction mixture as a control group.
To the reaction mixture were added 2.5 ml of a mixture of chloroform and methanol (2/1 by volume) and 0.3 ml of 40 mM citric acid to stop the reaction. The mixture was vortexed and an organic solvent layer was evaporated to dryness under nitrogen gas. After dissolving the dried organic layer in a fixed amount of the mixture of chloroform and methanol (2/1 by volume), it was spotted on a silica gel plate (Kiesel gel 60F254, E. Merck) and products were separated using a developer (the organic solvent layer of ethyl acetate/water/2,2,4-trimethylpentane/acetic acid=11/10/5/2 by volume). After the radioactive position of the product was determined by means of a radioautography, an area equivalent to that of 5-hydroxyeicosatetraenoic acid (hereinafter referred to as "5-HETE") was scraped off, and then its radioactivity was measured with a liquid scintillation counter. With regarding the amount of the generated 5-HETE as the 5-lipoxygenase inhibiting activity, the inhibition rate (%) in comparison with the control group was calculated according to the following equation. [formula]

T1 sequence (P00533 25-1210, one chain of several): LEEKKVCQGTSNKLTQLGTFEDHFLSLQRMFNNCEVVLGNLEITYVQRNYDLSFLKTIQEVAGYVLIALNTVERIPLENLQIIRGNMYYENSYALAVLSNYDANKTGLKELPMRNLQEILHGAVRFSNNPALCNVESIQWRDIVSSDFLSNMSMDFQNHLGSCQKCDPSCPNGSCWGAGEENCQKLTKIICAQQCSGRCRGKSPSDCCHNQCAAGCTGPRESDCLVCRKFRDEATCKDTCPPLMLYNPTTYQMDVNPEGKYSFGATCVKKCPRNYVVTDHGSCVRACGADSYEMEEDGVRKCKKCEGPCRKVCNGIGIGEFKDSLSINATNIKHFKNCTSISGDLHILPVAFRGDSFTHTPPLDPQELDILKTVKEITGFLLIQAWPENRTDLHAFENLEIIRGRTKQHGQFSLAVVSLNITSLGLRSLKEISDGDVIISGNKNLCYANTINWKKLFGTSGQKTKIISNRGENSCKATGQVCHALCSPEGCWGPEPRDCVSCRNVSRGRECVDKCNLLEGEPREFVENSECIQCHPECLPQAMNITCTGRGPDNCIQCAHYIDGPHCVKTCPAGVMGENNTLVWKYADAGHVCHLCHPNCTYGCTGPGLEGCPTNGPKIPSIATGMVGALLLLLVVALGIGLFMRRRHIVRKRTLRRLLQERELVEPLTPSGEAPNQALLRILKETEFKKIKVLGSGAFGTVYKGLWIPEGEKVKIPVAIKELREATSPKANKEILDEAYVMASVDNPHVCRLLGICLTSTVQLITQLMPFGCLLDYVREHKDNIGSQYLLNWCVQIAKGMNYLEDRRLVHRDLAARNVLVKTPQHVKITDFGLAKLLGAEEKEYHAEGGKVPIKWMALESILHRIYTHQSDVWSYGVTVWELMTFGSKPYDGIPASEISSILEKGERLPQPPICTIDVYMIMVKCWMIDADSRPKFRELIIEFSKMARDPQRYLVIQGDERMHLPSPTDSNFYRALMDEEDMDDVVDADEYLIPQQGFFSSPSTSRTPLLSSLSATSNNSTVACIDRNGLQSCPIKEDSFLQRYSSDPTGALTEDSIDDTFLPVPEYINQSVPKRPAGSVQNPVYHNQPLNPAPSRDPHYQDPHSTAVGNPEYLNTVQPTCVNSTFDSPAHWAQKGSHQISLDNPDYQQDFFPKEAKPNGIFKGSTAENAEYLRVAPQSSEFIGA

One may read the MIC as the lowest concentration that inhibits growth of the organism. A high value points to weaker potency. For orientation: inhibition means the change of the read-out against control, counted positive when it falls. In the case of `O=C1NN(c2ccccc2)C(=O)C1=Cc1cc(-c2ccccc2)c(O)c(-c2ccccc2)c1` [Compound 19], the MIC in data set [1] was 100 µg/mL (≈ 231 µM); in data set [2], 100 µg/mL (≈ 231 µM); in data set [3] it was at most 6 µg/mL; in data set [5] it was 50 µg/mL (≈ 116 µM). In addition, the inhibition at 1 µM was found to be 74% in data set [4] and 75% in data set [6].
`N#CC(=Cc1cc(-c2ccccc2)c(O)c(-c2ccccc2)c1)C(N)=O` [Compound 15]: the MIC is 60 µg/mL (≈ 176 µM) in data set [1], 100 µg/mL (≈ 294 µM) in data set [2], at most 15 µg/mL in data set [3] and 60 µg/mL (≈ 176 µM) in data set [5]. Moreover, the inhibition at 1 µM in data set [4] is 100%. Besides, in data set [6] (10 μM in the reaction mixture), the inhibition at 10 µM was 59%. In addition, the λ max in “UV absorption spectrum” is 271 nm and 348 nm. For the same compound, the molar extinction coefficient in “UV absorption spectrum” was 2.04 × 10^4 and 2.11 × 10^4.
On to `N#CC(=Cc1cc(Cc2ccccc2)c(O)c(Cc2ccccc2)c1)C(N)=O` [Compound 16], for which the MIC in data set [1], in data set [2], in data set [3] and in data set [5] was at most 15 µg/mL in each case. The inhibition at 1 µM in data set [4] came out at 100%. In addition, in “UV absorption spectrum”, the λ max is 249 nm and 347 nm. For the same compound, the molar extinction coefficient in “UV absorption spectrum” was 1.51 × 10^4 and 2.40 × 10^4. Moreover, the inhibition at 10 µM at 5-lipoxygenase amounted to 28%.
Take `O=C1Nc2ccccc2C1=Cc1cc(Cc2ccccc2)c(O)c(Cc2ccccc2)c1` [Compound 4]: the inhibition at 1 µM in data set [4] amounted to 74%. This compound gave an MIC in data set [5] of at most 6 µg/mL. Besides, in “UV absorption spectrum”, the λ max is 257 nm and 361 nm; the molar extinction coefficient was 1.87 × 10^4 and 1.80 × 10^4. Further, on 5-lipoxygenase, the inhibition at 10 µM is 85%.
`O=C1NCCC1=Cc1cc(Cc2ccccc2)c(O)c(Cc2ccccc2)c1` [Compound 18]: the inhibition at 1 µM in data set [4] worked out at 87%. In “UV absorption spectrum”, the λ max is given as 304 nm and the molar extinction coefficient is given as 1.87 × 10^4.
For `O=C1NC(=S)SC1=Cc1cc(-c2ccccc2)c(O)c(-c2ccccc2)c1` [Compound 1], the MIC in data set [1] was 12 µg/mL (≈ 30.8 µM); in data set [2], at most 6 µg/mL; in data set [3] it was 6 µg/mL (≈ 15.4 µM); in data set [5] it was at most 6 µg/mL. The values for the inhibition at 1 µM in data set [4] and in data set [6] were 23% and 96%, respectively.

The record behind these values is patent US5089516A, “1-phenyl-3,5-pyrazolidinedione hydroxystyrene compounds which have tyrosine kinase inhibiting activity” (Kanegafuchi Kagaku Kogyo Kabushiki Kaisha, priority 1987, dated 1992).
